Results published in patent US11684614B2, “Formulations of hydroxypyridonate actinide/lanthanide decorporation agents” (priority 2017, dated 2023).

Test: Repeated-treatment efficacy for removing an intravenous dose of 238Pu (excretion, tissue retention, clinical observations), female and male arms
Type: in vivo, Swiss-Webster mice
Conditions: female mice; for ^238Pu percent increase in excretion, Total Excretion / ^238Pu percent increase in excretion, Total Feces / ^238Pu percent increase in excretion, Total Urine: over untreated control group; for ^238Pu percent tissue reduction, GI Tract / ^238Pu percent tissue reduction, Kidney / ^238Pu percent tissue reduction, Liver / ^238Pu percent tissue reduction, Soft Tissue / ^238Pu percent tissue reduction, Total Body / ^238Pu percent tissue reduction, Total Bone: vs untreated control group
Method: The objective of this study was to characterize the efficacy of 3,4,3-L1(1,2-HOPO) at enhancing elimination from an internal plutonium burden in female and male Swiss-Webster mice administered a soluble citrate complex of ^238Pu and treated multiple times, starting at 24 hours after the exposure. Efficacy was evaluated by comparing the tissue contents, urinary and fecal excretions of ^238Pu in treated animals versus untreated animals.
The medical countermeasure 3,4,3-L1(1,2-HOPO) was administered parenterally (ip) or orally (po) via consecutive injections or gavages (six daily or twelve twice daily) starting at 24 hours post contamination at the following four selected doses: 30 μmol/kg ip, 150 μmol/kg po, 300 μmol/kg po, and 600 μmol/kg po (equivalent to respective approximate human doses range of […], using the accepted conversion system of mouse doses into human equivalent doses—HED—based on body surface area). Oral doses also included the permeability enhancer selected during formulation development work.
• Challenge isotope: ^238Pu • Challenge dose: 25 nCi (i.e., approximately 0.8 μCi/kg) • Route of contamination: Intravenous (iv) tail-vein • Route of treatment: Intraperitoneal Injection (ip) or Oral (po) • Frequency of treatment: Multiple (once- or twice-daily for 6 days) doses, starting 24 hr postcontamination • Treatment dose calculation: Dose calculations (mg/kg or μmol/kg) for the decorporation agent were based on the individual body weight measured after contamination. • Study Duration: 11 days, in-life
c. […] Test article and control dose formulations were prepared within 1 day of dose administration, by weighing out the appropriate amount of test article, dispersing in vehicle. For ip solutions, the test article was used alone, while for oral suspensions, a mixture of test article and excipient (90:10, w:w) was used. The pH was adjusted to 7.0-7.4 for ip administration and 5.0-5.5 for oral administration with sterile NaOH. Dose formulations were prepared at room temperature and filter-sterilized. • Storage: 2-8° C.; refrigerated; protected from light. • Characterization: The concentration of each test article formulation was verified by high-performance liquid chromatography-mass spectrometry. • Test Article Handling: Test, reference, and control article formulations were handled with the use of eye protection, gloves, and a protective laboratory coat. • Correct Dose Assurance: The test article was weighed with calibrated balances. The administration of each dose formulation was properly documented, and the amount administered to each animal recorded.
e. Experimental Procedures (In-Life Evaluations and Euthanasia) • Contamination: Single administration by intravenous (iv) tail-vein injection (0.2 mL injection volume) under isoflurane anesthesia. Three standard 0.2 mL injections were performed into polyethylene bottles and pre-loaded with aliquots of concentrated nitric acid on each injection day. Six female and six male mice were culled for necropsy 1 hr post-contamination and were used as standards. A11 standards were processed and counted together with the final samples to allow verification of the contamination dose. • Dose Administration: Single administration by intraperitoneal injection (ip) or oral gavage (po) under isoflurane anesthesia. • Mortality/Morbidity: Assessed at least once daily. • Clinical Observations: Recorded once daily (4 hr post-dose on day of treatment), or more often as clinical signs warranted. […]

[1] = 30 μmol/kg, IP, 11-day necropsy
[2] = 150 μmol/kg, 2 doses PO, 7-day necropsy
[3] = 300 μmol/kg, 1 dose PO, 7-day necropsy
[4] = 300 μmol/kg, 1 dose PO, 11-day necropsy
[5] = 300 μmol/kg, 1 doses PO, 7-day necropsy
[6] = 300 μmol/kg, 2 doses PO, 7-day necropsy
[7] = 300 μmol/kg, PO, 11-day necropsy
[8] = 600 μmol/kg, 1 dose PO, 7-day necropsy
[9] = 600 μmol/kg, 1 dose PO, 11-day necropsy
[10] = 600 μmol/kg, PO, 11-day necropsy

O=C(NCCCN(CCCCN(CCCNC(=O)c1cccc(=O)n1O)C(=O)c1cccc(=O)n1O)C(=O)c1cccc(=O)n1O)c1cccc(=O)n1O [Formulation 343]
^238Pu excretion, Total Excretion, Avg [1]: 79.37 percent recovered dose
^238Pu excretion, Total Feces, Avg [1]: 41.80 percent recovered dose
^238Pu excretion, Total Urine, Avg [1]: 37.57 percent recovered dose
^238Pu retention, GI Tract, Avg [1]: 0.59 percent recovered dose
^238Pu retention, Kidney, Avg [1]: 0.11 percent recovered dose
^238Pu retention, Liver, Avg [1]: 2.79 percent recovered dose
^238Pu retention, Soft Tissue, Avg [1]: 1.40 percent recovered dose
^238Pu retention, Total Body, Avg [1]: 20.63 percent recovered dose
^238Pu retention, Total Bone, Avg [1]: 15.74 percent recovered dose
^238Pu percent increase in excretion, Total Excretion [1]: 157.74%
^238Pu percent increase in excretion, Total Feces [1]: 146.77%
^238Pu percent increase in excretion, Total Urine [1]: 172.05%
^238Pu percent tissue reduction, GI Tract [1]: 55.96%
^238Pu percent tissue reduction, Kidney [1]: 58.43%
^238Pu percent tissue reduction, Liver [1]: 76.81%
^238Pu percent tissue reduction, Soft Tissue [1]: 50.90%
^238Pu percent tissue reduction, Total Body [1]: 58.48%
^238Pu percent tissue reduction, Total Bone [1]: 52.58%
^238Pu excretion, Total Excretion, Avg [2]: 62.18 percent recovered dose
^238Pu excretion, Total Feces, Avg [2]: 33.16 percent recovered dose
^238Pu excretion, Total Urine, Avg [2]: 29.02 percent recovered dose
^238Pu retention, GI Tract, Avg [2]: 1.20 percent recovered dose
^238Pu retention, Kidney, Avg [2]: 0.23 percent recovered dose
^238Pu retention, Liver, Avg [2]: 12.83 percent recovered dose
^238Pu retention, Soft Tissue, Avg [2]: 1.64 percent recovered dose
^238Pu retention, Total Body, Avg [2]: 37.82 percent recovered dose
^238Pu retention, Total Bone, Avg [2]: 21.92 percent recovered dose
^238Pu percent increase in excretion, Total Excretion [2]: 129.85%
^238Pu percent increase in excretion, Total Feces [2]: 146.48%
^238Pu percent increase in excretion, Total Urine [2]: 114.93%
^238Pu percent tissue reduction, GI Tract [2]: 35.66%
^238Pu percent tissue reduction, Kidney [2]: 43.29%
^238Pu percent tissue reduction, Liver [2]: 31.41%
^238Pu percent tissue reduction, Soft Tissue [2]: 19.55%
^238Pu percent tissue reduction, Total Body [2]: 27.43%
^238Pu percent tissue reduction, Total Bone [2]: 24.67%
^238Pu excretion, Total Excretion, Avg [3]: 63.26 percent recovered dose
^238Pu excretion, Total Feces, Avg [3]: 34.34 percent recovered dose
^238Pu excretion, Total Urine, Avg [3]: 28.92 percent recovered dose
^238Pu retention, GI Tract, Avg [3]: 1.20 percent recovered dose
^238Pu retention, Kidney, Avg [3]: 0.26 percent recovered dose
^238Pu retention, Liver, Avg [3]: 10.22 percent recovered dose
^238Pu retention, Soft Tissue, Avg [3]: 1.74 percent recovered dose
^238Pu retention, Total Body, Avg [3]: 36.74 percent recovered dose
^238Pu retention, Total Bone, Avg [3]: 23.31 percent recovered dose
^238Pu percent increase in excretion, Total Excretion [3]: 142.38%
^238Pu percent increase in excretion, Total Feces [3]: 197.06%
^238Pu percent increase in excretion, Total Urine [3]: 107.09%
^238Pu retention, GI Tract, Avg [4]: 1.02 percent recovered dose
^238Pu retention, Kidney, Avg [4]: 0.17 percent recovered dose
^238Pu retention, Liver, Avg [4]: 6.02 percent recovered dose
^238Pu retention, Soft Tissue, Avg [4]: 2.06 percent recovered dose
^238Pu retention, Total Body, Avg [4]: 28.11 percent recovered dose
^238Pu retention, Total Bone, Avg [4]: 18.85 percent recovered dose
^238Pu percent tissue reduction, GI Tract [4]: 25.61%
^238Pu percent tissue reduction, Kidney [4]: 37.82%
^238Pu percent tissue reduction, Liver [4]: 55.06%
^238Pu percent tissue reduction, Soft Tissue [4]: 22.98%
^238Pu percent tissue reduction, Total Body [4]: 42.51%
^238Pu percent tissue reduction, Total Bone [4]: 39.58%
^238Pu percent tissue reduction, GI Tract [5]: 11.06%
^238Pu percent tissue reduction, Kidney [5]: 20.17%
^238Pu percent tissue reduction, Liver [5]: 38.39%
^238Pu percent tissue reduction, Soft Tissue [5]: 25.25%
^238Pu percent tissue reduction, Total Body [5]: 33.88%
^238Pu percent tissue reduction, Total Bone [5]: 33.33%
^238Pu excretion, Total Excretion, Avg [6]: 66.57 percent recovered dose
^238Pu excretion, Total Feces, Avg [6]: 35.68 percent recovered dose
^238Pu excretion, Total Urine, Avg [6]: 30.90 percent recovered dose
^238Pu retention, GI Tract, Avg [6]: 1.25 percent recovered dose
^238Pu retention, Kidney, Avg [6]: 0.18 percent recovered dose
^238Pu retention, Liver, Avg [6]: 6.85 percent recovered dose
^238Pu retention, Soft Tissue, Avg [6]: 1.62 percent recovered dose
^238Pu retention, Total Body, Avg [6]: 33.43 percent recovered dose
^238Pu retention, Total Bone, Avg [6]: 23.54 percent recovered dose
^238Pu percent increase in excretion, Total Excretion [6]: 139.02%
^238Pu percent increase in excretion, Total Feces [6]: 157.58%
^238Pu percent increase in excretion, Total Urine [6]: 122.37%
^238Pu percent tissue reduction, GI Tract [6]: 33.06%
^238Pu percent tissue reduction, Kidney [6]: 56.34%
^238Pu percent tissue reduction, Liver [6]: 63.39%
^238Pu percent tissue reduction, Soft Tissue [6]: 20.76%
^238Pu percent tissue reduction, Total Body [6]: 35.85%
^238Pu percent tissue reduction, Total Bone [6]: 19.10%
^238Pu excretion, Total Excretion, Avg [7]: 71.89 percent recovered dose
^238Pu excretion, Total Feces, Avg [7]: 37.63 percent recovered dose
^238Pu excretion, Total Urine, Avg [7]: 34.27 percent recovered dose
^238Pu percent increase in excretion, Total Excretion [7]: 140.66%
^238Pu percent increase in excretion, Total Feces [7]: 162.86%
^238Pu percent increase in excretion, Total Urine [7]: 122.35%
^238Pu excretion, Total Excretion, Avg [8]: 67.37 percent recovered dose
^238Pu excretion, Total Feces, Avg [8]: 30.80 percent recovered dose
^238Pu excretion, Total Urine, Avg [8]: 36.57 percent recovered dose
^238Pu retention, GI Tract, Avg [8]: 1.24 percent recovered dose
^238Pu retention, Kidney, Avg [8]: 0.23 percent recovered dose
^238Pu retention, Liver, Avg [8]: 12.48 percent recovered dose
^238Pu retention, Soft Tissue, Avg [8]: 1.62 percent recovered dose
^238Pu retention, Total Body, Avg [8]: 32.63 percent recovered dose
^238Pu retention, Total Bone, Avg [8]: 17.06 percent recovered dose
^238Pu percent increase in excretion, Total Excretion [8]: 151.63%
^238Pu percent increase in excretion, Total Feces [8]: 176.75%
^238Pu percent increase in excretion, Total Urine [8]: 135.42%
^238Pu percent tissue reduction, GI Tract [8]: 8.30%
^238Pu percent tissue reduction, Kidney [8]: 29.85%
^238Pu percent tissue reduction, Liver [8]: 24.79%
^238Pu percent tissue reduction, Soft Tissue [8]: 30.25%
^238Pu percent tissue reduction, Total Body [8]: 41.28%
^238Pu percent tissue reduction, Total Bone [8]: 51.23%
^238Pu retention, GI Tract, Avg [9]: 0.83 percent recovered dose
^238Pu retention, Kidney, Avg [9]: 0.14 percent recovered dose
^238Pu retention, Liver, Avg [9]: 5.60 percent recovered dose
^238Pu retention, Soft Tissue, Avg [9]: 2.01 percent recovered dose
^238Pu retention, Total Body, Avg [9]: 26.78 percent recovered dose
^238Pu retention, Total Bone, Avg [9]: 18.20 percent recovered dose
^238Pu percent tissue reduction, GI Tract [9]: 39.39%
^238Pu percent tissue reduction, Kidney [9]: 48.77%
^238Pu percent tissue reduction, Liver [9]: 58.17%
^238Pu percent tissue reduction, Soft Tissue [9]: 24.63%
^238Pu percent tissue reduction, Total Body [9]: 45.22%
^238Pu percent tissue reduction, Total Bone [9]: 41.64%
^238Pu excretion, Total Excretion, Avg [10]: 73.22 percent recovered dose
^238Pu excretion, Total Feces, Avg [10]: 34.70 percent recovered dose
^238Pu excretion, Total Urine, Avg [10]: 38.52 percent recovered dose
^238Pu percent increase in excretion, Total Excretion [10]: 143.25%
^238Pu percent increase in excretion, Total Feces [10]: 150.20%
^238Pu percent increase in excretion, Total Urine [10]: 137.53%
